Numbered stars: 1 amine (or outer) side, 2 acyl side, 3 side chain; on linkers, the order of the positions; unused ones are H or OH. Bridge positions count the residues as written; N and C are the ends. Square brackets hold non-standard residues; d marks the D form. Peptide text beside a SMILES is read from it. * marks the point of attachment. ξ: configuration not given here. X22 = NC(=O)c1cccc(-c2ccc(C[C@H](N[*:1])C(=O)[*:2])cc2)c1; X19 = Cc1cccc(-c2ccc(C[C@H](N[*:1])C(=O)[*:2])cc2)c1; Phe(4-COOH) = N[C@@H](Cc1ccc(C(=O)O)cc1)C(=O)O; Bip = N[C@@H](Cc1ccc(-c2ccccc2)cc1)C(=O)O; dPhe(4-NH2) = Nc1ccc(C[C@@H](N)C(=O)O)cc1; Phe(3-Me) = Cc1cccc(C[C@H](N)C(=O)O)c1; 4Pal = N[C@@H](Cc1ccncc1)C(=O)O; Cha = N[C@@H](CC1CCCCC1)C(=O)O; Cit = NC(=O)NCCC[C@H](N)C(=O)O; NMeL = CN[C@@H](CC(C)C)C(=O)O; Thr(3ξ) = CC(O)[C@H](N)C(=O)O; Pip = O=C(O)[C@@H]1CCCCN1; Carboxymethyl = O=C(O)C*; NMeA = CN[C@@H](C)C(=O)O; Dab = NCC[C@H](N)C(=O)O; Dap = NC[C@H](N)C(=O)O; ξC = NC(CS)C(=O)O; Acm = CC(=O)NC*
Target: T1, PE-labeled human PD-L1-Ig binding to Jurkat cell line over-expressing human PD-1 (Jurkat-PD-1) (Homo sapiens, UniProt Q15116)
T1 construct: expressed in transfected cells; host or cells: Jurkat
Assay: Jurkat-PD-1 Cell Binding High-Content Screening Assay (CBA): Method 1
Conditions: Jurkat-hPD-1 cells, PE-labeled PD-L1-Ig 20 nM final; read-out: Jurkat HPDL1 PD1 IC50 (uM) (Method 1)

T1 sequence (Q15116 25-288): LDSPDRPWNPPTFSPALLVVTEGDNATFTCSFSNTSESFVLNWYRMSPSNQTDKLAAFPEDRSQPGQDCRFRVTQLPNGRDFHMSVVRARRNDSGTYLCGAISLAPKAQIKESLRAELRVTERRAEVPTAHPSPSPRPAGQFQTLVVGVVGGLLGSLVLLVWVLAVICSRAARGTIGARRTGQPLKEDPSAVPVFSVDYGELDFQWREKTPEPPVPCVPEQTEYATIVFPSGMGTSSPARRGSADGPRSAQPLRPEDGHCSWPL

With `CC(C)C[C@@H]1NC(=O)[C@H](Cc2c[nH]c3ccccc23)NC(=O)[C@H](CC(=O)O)NC(=O)[C@H](Cc2ccc(O)cc2)NC(=O)[C@H](Cc2ccccc2)NC(=O)CSC[C@@H](C(=O)NCC(N)=O)NC(=O)[C@H](CO)NC(=O)[C@H](C(C)C)NC(=O)[C@H](CC(C)C)NC(=O)[C@H](CCN)NC(=O)[C@@H](CC(C)C)NC(=O)[C@H](C)N(C)C(=O)[C@H](CCC(=O)O)NC(=O)[C@H](Cc2ccc(-c3ccccc3)cc2)NC1=O` [Compound 1513] ({CH2CO}-FYDWL[Bip]E[NMeA][dL][Dab]LVSCG-NH2; thioether N-14) as the compound, how does the IC50 read?
Its IC50 is 0.02 µM.

For `Cc1cccc(C[C@@H]2NC(=O)[C@H](CC(=O)O)NC(=O)[C@H](Cc3ccncc3)NC(=O)[C@H](CN)NC(=O)CSC[C@@H](C(N)=O)NC(=O)[C@H](CO)NC(=O)[C@H](C(C)C)NC(=O)[C@H](CC(C)C)NC(=O)[C@H](CC(N)=O)NC(=O)[C@@H](CC(C)C)NC(=O)[C@H](C)N(C)C(=O)[C@H](C(C)C)NC(=O)[C@H](Cc3ccc(-c4ccccc4)cc3)NC(=O)[C@H](CC(C)C)NC2=O)c1` [Compound 1598] ({CH2CO}-[Dap][4Pal]D[Phe(3-Me)]L[Bip]V[NMeA][dL]NLVSC-NH2; thioether N-14), which IC50 is on record?
The IC50 was 0.01 µM.

`CC(C)C[C@H]1NC(=O)[C@H](C)N(C)C(=O)[C@H](CCCNC(=N)N)NC(=O)[C@H](Cc2ccc(-c3ccccc3)cc2)NC(=O)[C@H](C(C)C)NC(=O)[C@H](Cc2c[nH]c3ccccc23)NC(=O)[C@H](CC(=O)O)NC(=O)[C@H](Cc2ccc(O)cc2)NC(=O)[C@H](Cc2ccccc2)NC(=O)CSC[C@@H](C(=O)N[C@@H](C)C(N)=O)NC(=O)[C@H]([C@@H](C)O)NC(=O)[C@H](C(C)C)NC(=O)[C@H](CC(C)C)N(C)C(=O)[C@H](CCCNC(=N)N)NC1=O` [Compound 1117] ({CH2CO}-FYDWV[Bip]R[NMeA][dL]R[NMeL]VTCA-NH2; thioether N-14) was tested. Which IC50 did it give?
The IC50 was 0.36 µM.

How did the IC50 turn out when `CC(C)C[C@@H]1NC(=O)[C@H](CCCNC(=N)N)NC(=O)[C@@H](CC(C)C)NC(=O)[C@H](C)N(C)C(=O)[C@H](C(C)C)NC(=O)[C@H](Cc2ccc(-c3ccccc3)cc2)NC(=O)[C@H](C(C)C)NC(=O)[C@H](Cc2c[nH]c3ccccc23)NC(=O)[C@H](CC(=O)O)NC(=O)[C@H](Cc2ccc(O)cc2)NC(=O)[C@H](Cc2ccccc2)NC(=O)CSC[C@@H](C(=O)N[C@@H](C)C(N)=O)NC(=O)[C@H](CO)NC(=O)[C@H](C(C)C)NC1=O` [Compound 1770] ({CH2CO}-FYDWV[Bip]V[NMeA][dL]RLVSCA-NH2; thioether N-14) was run?
The IC50 was 0.04 µM.

How did the IC50 turn out when `CC(C)C[C@@H]1NC(=O)[C@H](Cc2c[nH]c3ccccc23)NC(=O)[C@H](CC(=O)O)NC(=O)[C@H](Cc2ccc(OCC(=O)O)cc2)NC(=O)[C@H](C(C)O)NC(=O)CSC[C@@H](C(N)=O)NC(=O)[C@H](CO)NC(=O)[C@H](C(C)C)NC(=O)[C@H](CC2CCCCC2)NC(=O)[C@H](Cc2cnc[nH]2)NC(=O)[C@@H](CC(C)C)NC(=O)[C@H](C)N(C)C(=O)[C@H](C(C)C)NC(=O)[C@H](Cc2ccc(-c3ccccc3)cc2)NC1=O` (stereo partly drawn) [Compound 2253] ({CH2CO}-[Thr(3ξ)]Y(Carboxymethyl)DWL[Bip]V[NMeA][dL]H[Cha]VSC-NH2; thioether N-14) was run?
The IC50 was 0.04 µM.

`CC(=O)NCSC[C@@H]1NC(=O)[C@H](CC(C)C)NC(=O)[C@H](CC(N)=O)NC(=O)[C@@H](CC(C)C)NC(=O)[C@H](C)N(C)C(=O)[C@H](CSCNC(C)=O)NC(=O)[C@H](Cc2ccc(-c3ccccc3)cc2)NC(=O)[C@H](CC(C)C)NC(=O)[C@H](Cc2cccc(C)c2)NC(=O)[C@H](CC(=O)O)NC(=O)[C@H](Cc2ccncc2)NC(=O)[C@H](Cc2ccc(OCC(=O)O)cc2)NC(=O)CSCC(C(=O)NCC(N)=O)NC(=O)[C@H](CO)NC1=O` (stereo partly drawn) [Compound 1886] ({CH2CO}-Y(Carboxymethyl)[4Pal]D[Phe(3-Me)]L[Bip]C(Acm)[NMeA][dL]NLC(Acm)S[ξC]G-NH2; thioether N-14) was tested. Which IC50 did it give?
The IC50 was 0.14 µM.

`CC(C)C[C@@H]1NC(=O)[C@H](CCN)NC(=O)[C@@H](CC(C)C)NC(=O)[C@@H]2CCCCN2C(=O)[C@H](CCCNC(N)=O)NC(=O)[C@H](Cc2ccc(-c3ccccc3)cc2)NC(=O)[C@H](C(C)C)NC(=O)[C@H](Cc2c[nH]c3ccccc23)NC(=O)[C@H](CC(=O)O)NC(=O)[C@H](Cc2ccc(O)cc2)NC(=O)[C@H](CC(N)=O)NC(=O)CSC[C@@H](C(=O)N[C@@H](C)C(N)=O)NC(=O)[C@H]([C@@H](C)O)NC(=O)[C@H](C(C)C)NC1=O` [Compound 1382] ({CH2CO}-NYDWV[Bip][Cit][Pip][dL][Dab]LVTCA-NH2; thioether N-14) was tested. Which IC50 did it give?
Its IC50 is 0.08 µM.

Which IC50 does the source give for `Cc1cccc(-c2ccc(C[C@@H]3NC(=O)[C@H](CC(C)C)NC(=O)[C@H](Cc4c[nH]c5ccccc45)NC(=O)[C@H](CC(=O)O)NC(=O)[C@H](Cc4ccc(O)cc4)NC(=O)[C@H](Cc4ccccc4)NC(=O)CSC[C@@H](C(=O)N[C@@H](C)C(N)=O)NC(=O)[C@H](CO)NC(=O)[C@H](C(C)C)NC(=O)[C@H](CC(C)C)NC(=O)[C@H](CC(N)=O)NC(=O)[C@@H](C)NC(=O)[C@H](C)N(C)C(=O)[C@H](C(C)C)NC3=O)cc2)c1` [Compound 1788] ({CH2CO}-FYDWL[X19]V[NMeA][dA]NLVSCA-NH2; thioether N-14) here?
The IC50 was 0.11 µM.

Which IC50 does the source give for `Cc1cccc(C[C@@H]2NC(=O)[C@H](CC(=O)O)NC(=O)[C@H](Cc3ccc(C(=O)O)cc3)NC(=O)[C@H](CN)NC(=O)CSC[C@@H](C(=O)N[C@@H](C)C(N)=O)NC(=O)[C@H]([C@@H](C)O)NC(=O)[C@H](C(C)C)NC(=O)[C@H](CC(C)C)NC(=O)[C@H](CCN)NC(=O)[C@@H](CC(C)C)NC(=O)[C@H](C)N(C)C(=O)[C@H](C(C)C)NC(=O)[C@H](Cc3ccc(-c4ccccc4)cc3)NC(=O)[C@H](C(C)C)NC2=O)c1` [Compound 1415] ({CH2CO}-[Dap][Phe(4-COOH)]D[Phe(3-Me)]V[Bip]V[NMeA][dL][Dab]LVTCA-NH2; thioether N-14) here?
The IC50 was 0.04 µM.

Which IC50 does the source give for `CC(C)C[C@@H]1NC(=O)[C@H](CCCNC(=N)N)NC(=O)[C@@H](CC(C)C)NC(=O)[C@H](C)N(C)C(=O)[C@H](CCCNC(=N)N)NC(=O)[C@H](Cc2ccc(-c3ccccc3)cc2)NC(=O)[C@H](C(C)C)NC(=O)[C@H](Cc2c[nH]c3ccccc23)NC(=O)[C@H](CC(=O)O)NC(=O)[C@H](Cc2ccc(C(=O)O)cc2)NC(=O)[C@H](Cc2ccncc2)NC(=O)CSC[C@@H](C(=O)N[C@@H](C)C(N)=O)NC(=O)[C@H]([C@@H](C)O)NC(=O)[C@H](C(C)C)NC1=O` [Compound 1077] ({CH2CO}-[4Pal][Phe(4-COOH)]DWV[Bip]R[NMeA][dL]RLVTCA-NH2; thioether N-14) here?
The IC50 was 0.05 µM.

Which IC50 does the source give for `CC(C)C[C@@H]1NC(=O)[C@H](CCN)NC(=O)[C@@H](CC(C)C)NC(=O)[C@H](C)N(C)C(=O)[C@H](CCC(=O)O)NC(=O)[C@H](Cc2ccc(-c3ccccc3)cc2)NC(=O)[C@H](C(C)C)NC(=O)[C@H](Cc2c[nH]c3ccccc23)NC(=O)[C@H](CC(=O)O)NC(=O)[C@H](Cc2ccc(O)cc2)NC(=O)[C@H](Cc2ccccc2)NC(=O)CSC[C@@H](C(=O)N[C@@H](C)C(N)=O)NC(=O)[C@H]([C@@H](C)O)NC(=O)[C@H](C(C)C)NC1=O` [Compound 1134] ({CH2CO}-FYDWV[Bip]E[NMeA][dL][Dab]LVTCA-NH2; thioether N-14) here?
Its IC50 is 0.11 µM.

Which IC50 does the source give for `CC(C)C[C@@H]1NC(=O)[C@H](CCCNC(=N)N)NC(=O)[C@@H](Cc2ccc(N)cc2)NC(=O)[C@H](C)N(C)C(=O)[C@H](CCCNC(=N)N)NC(=O)[C@H](Cc2ccc(-c3ccccc3)cc2)NC(=O)[C@H](C(C)C)NC(=O)[C@H](Cc2c[nH]c3ccccc23)NC(=O)[C@H](CC(=O)O)NC(=O)[C@H](Cc2ccc(O)cc2)NC(=O)[C@H](Cc2ccccc2)NC(=O)CSC[C@@H](C(=O)N[C@@H](C)C(N)=O)NC(=O)[C@H]([C@@H](C)O)NC(=O)[C@H](C(C)C)NC1=O` [Compound 1087] ({CH2CO}-FYDWV[Bip]R[NMeA][dPhe(4-NH2)]RLVTCA-NH2; thioether N-14) here?
The IC50 was 0.33 µM.

Which IC50 does the source give for `CC(C)C[C@@H]1NC(=O)[C@H](CCN)NC(=O)[C@@H](CC(C)C)NC(=O)[C@H](C)N(C)C(=O)[C@H](CCCNC(=N)N)NC(=O)[C@H](Cc2ccc(-c3ccccc3)cc2)NC(=O)[C@H](C(C)C)NC(=O)[C@H](Cc2c[nH]c3ccccc23)NC(=O)[C@H](CC(N)=O)NC(=O)[C@H](Cc2ccc(OCC(=O)O)cc2)NC(=O)[C@H](CC(N)=O)NC(=O)CSC[C@@H](C(=O)N[C@@H](C)C(N)=O)NC(=O)[C@H]([C@@H](C)O)NC(=O)[C@H](C(C)C)NC1=O` [Compound 1206] ({CH2CO}-NY(Carboxymethyl)NWV[Bip]R[NMeA][dL][Dab]LVTCA-NH2; thioether N-14) here?
The IC50 was 0.59 µM.

For `Cc1cccc(C[C@@H]2NC(=O)[C@H](CC(=O)O)NC(=O)[C@H](Cc3ccc(OCC(=O)O)cc3)NC(=O)[C@H](CN)NC(=O)CSC[C@@H](C(N)=O)NC(=O)[C@H](CC(N)=O)NC(=O)[C@H](C(C)C)NC(=O)[C@H](CC3CCCCC3)NC(=O)[C@H](CCN)NC(=O)[C@@H](CC(C)C)NC(=O)[C@H](C)N(C)C(=O)[C@H](Cc3ccc(OCC(=O)O)cc3)NC(=O)[C@H](Cc3ccc(-c4ccccc4)cc3)NC(=O)[C@H](Cc3ccc(OCC(=O)O)cc3)NC2=O)c1` [Compound 1647] ({CH2CO}-[Dap]Y(Carboxymethyl)D[Phe(3-Me)]Y(Carboxymethyl)[Bip]Y(Carboxymethyl)[NMeA][dL][Dab][Cha]VNC-NH2; thioether N-14), which IC50 is on record?
Its IC50 is 0.04 µM.

How did the IC50 turn out when `CC(C)C[C@@H]1NC(=O)[C@H](CCN)NC(=O)[C@@H](CC(C)C)NC(=O)[C@H](C)N(C)C(=O)[C@H](CCCNC(=N)N)NC(=O)[C@H](Cc2ccc(-c3cccc(C(N)=O)c3)cc2)NC(=O)[C@H](C(C)C)NC(=O)[C@H](Cc2c[nH]c3ccccc23)NC(=O)[C@H](CC(=O)O)NC(=O)[C@H](Cc2ccc(O)cc2)NC(=O)[C@H](CC(N)=O)NC(=O)CSC[C@@H](C(=O)N[C@@H](C)C(N)=O)NC(=O)[C@H]([C@@H](C)O)NC(=O)[C@H](C(C)C)NC1=O` [Compound 1225] ({CH2CO}-NYDWV[X22]R[NMeA][dL][Dab]LVTCA-NH2; thioether N-14) was run?
The IC50 was 0.29 µM.
